Here are results for ten compounds from patent publication US20240116985A1, “STAPLED PEPTIDES AND METHODS THEREOF” (priority 2020, published 2024).

Where two headings read alike, the source gives them in different places.

A short description of one data set: CHI Log D procedure. Particulars: for chromatographic logD: pH 7.4, CHI Log D; for CHI Log D: pH 7.4. It is filed as physicochemical.
For data set [1], the target named is T1, full-length beta-Catenin (Uniprot ID P35222) (Homo sapiens, UniProt P35222).
T1 construct: 10 nM full-length beta-Catenin (Uniprot ID P35222)
T1 sequence (P35222 1-781): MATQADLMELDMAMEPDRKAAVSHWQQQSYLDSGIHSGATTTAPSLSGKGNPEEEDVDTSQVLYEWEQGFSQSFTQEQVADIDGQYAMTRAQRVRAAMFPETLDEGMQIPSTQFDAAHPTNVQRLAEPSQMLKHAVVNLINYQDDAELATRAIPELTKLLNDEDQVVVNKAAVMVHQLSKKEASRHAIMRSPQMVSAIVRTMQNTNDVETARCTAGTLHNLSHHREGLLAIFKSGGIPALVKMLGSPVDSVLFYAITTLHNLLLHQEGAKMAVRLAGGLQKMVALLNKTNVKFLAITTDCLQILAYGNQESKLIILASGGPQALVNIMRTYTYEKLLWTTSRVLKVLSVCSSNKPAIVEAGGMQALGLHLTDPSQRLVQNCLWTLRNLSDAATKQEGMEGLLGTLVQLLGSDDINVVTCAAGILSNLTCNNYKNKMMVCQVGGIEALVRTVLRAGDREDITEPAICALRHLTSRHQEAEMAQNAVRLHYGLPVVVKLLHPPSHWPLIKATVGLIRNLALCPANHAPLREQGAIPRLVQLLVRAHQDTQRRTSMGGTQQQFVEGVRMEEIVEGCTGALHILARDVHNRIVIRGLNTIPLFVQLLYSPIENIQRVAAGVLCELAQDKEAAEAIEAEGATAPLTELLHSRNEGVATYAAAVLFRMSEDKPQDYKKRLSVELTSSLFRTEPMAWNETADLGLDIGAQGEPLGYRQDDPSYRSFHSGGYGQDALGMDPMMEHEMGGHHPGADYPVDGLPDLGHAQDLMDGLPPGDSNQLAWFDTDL
Put plainly: Fluorescence polarization IC50 (beta-catenin / 5FAM-TCF4 10-53 competition). The class given is binding. A general note: Polarisation of emitted light reports the rotation of a fluorescent probe.

Data set [2] deals with T2, full-length B-Catenin (Uniprot ID P35222) (Homo sapiens, UniProt P35222).
T2 construct: 65 nM full-length B-Catenin (Uniprot ID P35222)
T2 sequence (P35222 1-781): T1 sequence (P35222 1-781)
Put plainly: Alphascreen binding assay (beta-catenin / biotin-TCF4 10-53). In a few lines:
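Final concentrations: 65 nM full-length human β-catenin plus 10 nM biotin-TCF4(10-53) peptide, test peptide 3-fold from 10 uM to 5 nM, preincubated 15 min at 20 °C in Tris pH 8.0/250 mM NaCl buffer. Nickel-chelate AlphaScreen donor/acceptor beads then added for 60 min in the dark; duplicate reads fitted to 1:1 binding model with Hill slope.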
In general terms: Alpha assays give light when donor and acceptor beads are brought close together.

[3] abbreviates: Table E2-1, read-out: beta-Catenin FP IC50.
[4] abbreviates: fluorescence polarization, beta-catenin, read-out: FP EC50.

Take `CC[C@H](C)[C@@H]1NC(=O)[C@H](CC(=O)O)NC(=O)[C@]2(CC=CCCCC3(CCCC=CCCCCCC[C@@](C)(C(=O)N[C@@H](Cc4ccccc4)C(=O)N[C@@H](Cc4c[nH]c5ccccc45)C(=O)N[C@@H](C)C(N)=O)NC(=O)[C@H](CCC(N)=O)NC(=O)[C@H](Cc4ccccc4)NC(=O)[C@H](C)NC(=O)[C@H](C)NC(=O)[C@H](CCC(=O)O)NC(=O)[C@H](CC(=O)O)NC3=O)NC1=O)CCCN2C(C)=O` (stereo partly drawn) [I-194, Ac-PL3-Asp-Ile-B5-Asp-Glu-Ala-Ala-Phe-Gln-S8-Phe-Trp-Ala-NH2]: the chromatographic logD in “CHI Log D procedure” came out at 2.33. For the same compound, the IC50 in data set [1] (setting [3]) came to 1.01 µM. For the same compound, in data set [2], the EC50 is 0.105 µM.
Take `CC(=O)N1CCC[C@]12CC=CCCCC1(CCCC=CCCCCCC[C@@](C)(C(=O)N[C@@H](Cc3ccccc3)C(=O)N[C@@H](Cc3c[nH]c4ccccc34)C(=O)N[C@@H](CCC(N)=O)C(N)=O)NC(=O)[C@H](C(C)C)NC(=O)[C@H](Cc3cccc(C)c3)NC(=O)[C@H](C)NC(=O)[C@H](C)NC(=O)[C@H](CCC(=O)O)NC(=O)[C@H](CC(=O)O)NC1=O)NC(=O)[C@H](C)NC(=O)[C@H](CC(=O)O)NC2=O` (stereo partly drawn) [I-207, Ac-PL3-Asp-Ala-B5-Asp-Glu-Ala-Ala-3MeF-Val-S8-Phe-Trp-Gln-NH2]: the “CHI Log D” value in “CHI Log D procedure” came out at 2.054. In addition, the IC50 in data set [1] (setting [3]) and in data set [1] (setting [4]) was 1.75 µM each time. The compound further gave an EC50 in data set [2] of 0.143 µM.
`COc1ccc(C[C@@H]2NC(=O)[C@H](C)NC(=O)[C@H](C)NC(=O)[C@H](CCC(=O)O)NC(=O)[C@H](CC(=O)O)NC(=O)C3(CCCC=CCCCCCC[C@@](C)(C(=O)N[C@@H](Cc4ccccc4)C(=O)N[C@@H](Cc4c[nH]c5ccccc45)C(=O)N[C@@H](CCC(N)=O)C(N)=O)NC(=O)[C@H](C(C)C)NC2=O)CCCC=CC[C@]2(CCCN2C(C)=O)C(=O)N[C@@H](CC(=O)O)C(=O)N[C@@H](C)C(=O)N3)cc1` (stereo partly drawn) [I-217, Ac-PL3-Asp-Ala-B5-Asp-Glu-Ala-Ala-MeTyr-Val-S8-Phe-Trp-Gln-NH2]: the “CHI Log D” value in the data set “CHI Log D procedure” turned out to be 2.012. Also, the IC50 in data set [1] (setting [3]) and in data set [1] (setting [4]) was 1.96 µM throughout. Also, in data set [2], the EC50 worked out at 0.09 µM.
For `CC(=O)N1CCC[C@]12CC=CCCCC1(CCCC=CCCCCCC[C@@](C)(C(=O)N[C@@H](Cc3ccccc3)C(=O)N[C@@H](Cc3c[nH]c4ccccc34)C(=O)N[C@@H](CCC(N)=O)C(N)=O)NC(=O)[C@H](C(C)C)NC(=O)[C@H](Cc3cc(F)cc(F)c3)NC(=O)[C@H](C)NC(=O)[C@H](C)NC(=O)[C@H](CCC(=O)O)NC(=O)[C@H](CC(=O)O)NC1=O)NC(=O)[C@H](C)NC(=O)[C@H](CC(=O)O)NC2=O` (stereo partly drawn) [I-219, Ac-PL3-Asp-Ala-B5-Asp-Glu-Ala-Ala-35FF-Val-S8-Phe-Trp-Gln-NH2], in “CHI Log D procedure”, the “CHI Log D” value was 2.074. In addition, the IC50 in data set [1] (setting [3]) and in data set [1] (setting [4]) was 2.86 µM throughout. Besides, the EC50 in data set [2] turned out to be 0.131 µM.
Consider `CC(=O)N1CCC[C@]12CC=CCCCC1(CCCC=CCCCCCC[C@@](C)(C(=O)N[C@@H](Cc3ccccc3)C(=O)N[C@@H](Cc3c[nH]c4ccccc34)C(=O)N[C@@H](CCC(N)=O)C(N)=O)NC(=O)[C@H](C(C)C)NC(=O)[C@H](Cc3cccc(C(F)(F)F)c3)NC(=O)[C@H](C)NC(=O)[C@H](C)NC(=O)[C@H](CC(=O)O)NC(=O)[C@H](CC(=O)O)NC1=O)NC(=O)[C@H](C)NC(=O)[C@H](CC(=O)O)NC2=O` (stereo partly drawn) [I-238, Ac-PL3-Asp-Ala-B5-Asp-Asp-Ala-Ala-3F3MeF-Val-S8-Phe-Trp-Gln-NH2], for which the “CHI Log D” value in the data set “CHI Log D procedure” turned out to be 2.074. Besides, the IC50 in data set [1] (setting [3]) and in data set [1] (setting [4]) was 1.59 µM each time. The same compound registered an EC50 in data set [2] of 0.267 µM.
With `CC(=O)N1CCC[C@]12CC=CCCCC1(CCCC=CCCCCCC[C@@](C)(C(=O)N[C@@H](Cc3ccccc3)C(=O)N[C@@H](Cc3c[nH]c4ccccc34)C(=O)N[C@@H](CCC(N)=O)C(N)=O)NC(=O)[C@H](C(C)C)NC(=O)[C@H](Cc3cccc(C(F)(F)F)c3)NC(=O)[C@H](C)NC(=O)[C@H](C)NC(=O)[C@H](CC(=O)O)NC(=O)[C@H](CC(=O)O)NC1=O)NC(=O)[C@H](C)NC(=O)[C@H](CC(=O)O)NC2=O` (stereo partly drawn) [I-239, Ac-PL3-Asp-Ala-B5-Asp-Asp-Ala-Ala-3F3MeF-Val-S8-Phe-Trp-Gln-NH2], the “CHI Log D” value in the data set “CHI Log D procedure” is on record as 2.074. Further, the IC50 in data set [1] (setting [4]) was 1.59 µM. Moreover, the EC50 in data set [2] is 0.267 µM.
With `CC(=O)N1CCC[C@]12CC=CCCCC1(CCCC=CCCCCCC[C@@](C)(C(=O)N[C@@H](Cc3cccc4ccccc34)C(=O)N[C@@H](Cc3c[nH]c4ccccc34)C(=O)N[C@@H](CCC(N)=O)C(N)=O)NC(=O)[C@H](C(C)C)NC(=O)[C@H](Cc3ccccc3)NC(=O)[C@H](C)NC(=O)[C@H](C)NC(=O)[C@H](CC(=O)O)NC(=O)[C@H](CC(=O)O)NC1=O)NC(=O)[C@H](C)NC(=O)[C@H](CC(=O)O)NC2=O` (stereo partly drawn) [I-276, Ac-PL3-Asp-Ala-B5-Asp-Asp-Ala-Ala-Phe-Val-S8-1NapA-Trp-Gln-NH2], in “CHI Log D procedure”, the “CHI Log D” value stood at 2.207. In addition, the IC50 in data set [1] (setting [3]) and in data set [1] (setting [4]) was 3.43 µM throughout. Further, a half-maximal response in data set [2] (EC50) required 0.329 µM.
Turning to `CC(=O)N1CCC[C@]12CC=CCCCC1(CCCC=CCCCCCC[C@@](C)(C(=O)N[C@@H](Cc3c[nH]cn3)C(=O)N[C@@H](Cc3c[nH]c4ccccc34)C(=O)N[C@@H](CCC(N)=O)C(N)=O)NC(=O)[C@H](C(C)C)NC(=O)[C@H](Cc3ccccc3)NC(=O)[C@H](C)NC(=O)[C@H](C)NC(=O)[C@H](CC(=O)O)NC(=O)[C@H](CC(=O)O)NC1=O)NC(=O)[C@H](C)NC(=O)[C@H](CC(=O)O)NC2=O` (stereo partly drawn) [I-285, Ac-PL3-Asp-Ala-B5-Asp-Asp-Ala-Ala-Phe-Val-S8-His-Trp-Gln-NH2], the chromatographic logD in “CHI Log D procedure” was 1.49. In data set [1] (setting [3]), the IC50 turned out to be 5 µM. Besides, a half-maximal response in data set [2] (EC50) required 0.246 µM.
As for `CC(=O)N1CCC[C@]12CC=CCCCC1(CCCC=CCCCCCC[C@@](C)(C(=O)N[C@@H](Cc3ccccc3)C(=O)N[C@@H](Cc3c[nH]c4ccccc34)C(=O)N[C@@H](CCC(N)=O)C(N)=O)NC(=O)[C@H](C)NC(=O)[C@H](Cc3ccccc3)NC(=O)[C@H](C)NC(=O)[C@H](C)NC(=O)[C@H](CC(=O)O)NC(=O)[C@H](CC(=O)O)NC1=O)NC(=O)[C@H](C)NC(=O)[C@H](CC(=O)O)NC2=O` (stereo partly drawn) [I-287, Ac-PL3-Asp-Ala-B5-Asp-Asp-Ala-Ala-Phe-Ala-S8-Phe-Trp-Gln-NH2], in the data set “CHI Log D procedure”, the “CHI Log D” value was determined as 1.875. In addition, the IC50 in data set [1] (setting [3]) and in data set [1] (setting [4]) was 4.95 µM in each case. Moreover, the EC50 in data set [2] is 0.534 µM.
On to `CC(=O)N1CCC[C@]12CC=CCCCC1(CCCC=CCCCCCC[C@@](C)(C(=O)N[C@@H](Cc3ccccc3)C(=O)N[C@@H](Cc3c[nH]c4ccccc34)C(=O)N[C@@H](C)C(N)=O)NC(=O)[C@H](C(C)C)NC(=O)[C@H](Cc3ccccc3)NC(=O)[C@H](C)NC(=O)[C@H](C)NC(=O)[C@H](CC(=O)O)NC(=O)[C@H](CC(=O)O)NC1=O)NC(=O)[C@H](C)NC(=O)[C@H](CC(=O)O)NC2=O` (stereo partly drawn) [I-291, Ac-PL3-Asp-Ala-B5-Asp-Asp-Ala-Ala-Phe-Val-S8-Phe-Trp-Ala-NH2], for which the “CHI Log D” value in the data set “CHI Log D procedure” stood at 2.195. Besides, the IC50 in data set [1] (setting [3]) and in data set [1] (setting [4]) was 3.13 µM each time. For the same compound, the EC50 in data set [2] came out at 0.327 µM.

One may read the chromatographic logD as a lipophilicity value derived from retention on a column. High values mean higher lipophilicity, low ones lower lipophilicity. One may read the EC50 as the midpoint of the concentration-response curve. Low values mean greater potency, high ones weaker potency.
